In paper PMC8116058, “De novo macrocyclic peptides dissect energy coupling of a heterodimeric ABC transporter by multimode allosteric inhibition” (eLife, 2021):
Positions of bridges follow the written chain, without caps; N, C: chain ends. Non-standard residues stand in square brackets, D forms with d. Residues, ends and D or L forms follow the SMILES beside them. *: point of attachment. 5FAM = O=C1OC2(c3ccc(O)cc3Oc3cc(O)ccc32)c2ccc(C(=O)*)cc21; βAla = NCCC(=O)O

System: detergent-solubilized IF or OF TmrA^EQB
Experiment: CP^F anisotropy with IF or OF TmrA^EQB under nucleotide conditions
Assay type: binding, Thermus thermophilus
Details: for Binding under nucleotide conditions: absence and presence of ATP and ADP
Text: ABC transport complexes such as TmrAB run through multiple conformational states along the ATP hydrolysis cycle to drive unidirectional substrate transport ([Hofmann et al., 2019]; [Stefan et al., 2020]). Within the substrate translocation cycle, two major conformers, inward-facing (IF) and outward-facing (OF), were identified. To investigate whether CPs favor one of these conformers, we probed the binding of CP^Fs by fluorescence polarization analysis. […] In the latter case, the interaction studies were performed immediately after the IF-to-OF switch by incubation with ATP for 5 min at 45°C. To exclude an OF-to-IF return (τ1/2 of 25 min) ([Stefan et al., 2020]), the fluorescence anisotropy was recorded only within the first minute of incubation.
Figure 5. […] (A, B) CP6^F (A) or CP13^F (B, 50 nM each) were incubated with increasing concentrations of detergent-solubilized inward-facing TmrAB (in the absence of Mg-ATP) or outward-facing TmrA^EQB, which was trapped with Mg-ATP (1 mM) for 5 min at 45°C as described ([Hofmann et al., 2019]; [Stefan et al., 2020]). Immediately after, the fluorescence anisotropy was assayed at λex/em = 485/520 nm. The difference in fluorescence polarization was normalized to free and fully bound CP^F. Data were fitted by a one-site binding model. […] TmrAB (2 µM each) were mixed with CP^Fs (4 µM), ATP (1 mM, traced with [α^32P]-ATP), and MgCl2 (5 mM) for 5 min at 4°C or 45°C. Cold ATP (10 mM) was added, and freely exchangeable nucleotides were removed by rapid gel filtration. Occluded nucleotides were analyzed by thin layer chromatography and autoradiography. Representative radiograms for independent triplicates are shown. (D) Stably occluded nucleotides, [α^32P]-ATP and [α^32P]-ADP, were quantified by autoradiography. Data were normalized to the vanadate-trapped state. In (A, B, D), mean values ± SD (n = 3) are shown. Figure 5—source data 1. Source Data for Figure 5. Figure 5—figure supplement 1. […] (A) CP^Fs (50 nM each) were incubated with increasing concentrations of detergent-solubilized IF TmrAB in the inward-facing (IF) conformation (absence of Mg-ATP) or TmrA^EQB populated in the outward-facing (OF) conformation, which was trapped in the OF conformation by Mg-ATP (1 mM) after 5 min incubation at 45°C. The difference in fluorescence polarization was normalized to unbound (0%) and 100% bound CP^F. Data were fitted by a one-site binding model. Fluorescence anisotropy was recorded at λex/em = 485/520 nm. […] TmrA^EQB (2 µM) were incubated in the absence and presence of CP^Fs (4 µM each), ATP (1 mM, traced with [α^32P]-ATP), and MgCl2 (5 mM) for 5 min at 4°C or 45°C. Cold ATP (10 mM) was added, and free nucleotides were removed by rapid gel filtration. Occluded nucleotides were analyzed by thin layer chromatography and autoradiography. Representative radiograms for independent triplicates are shown. […] Figure 5—figure supplement 1—source data 1.
To determine equilibrium binding constants, CP^Fs (50 nM) were incubated with increasing concentrations of TmrAB-containing or empty liposomes. To probe the conformational selectivity, CP^Fs (50 nM) were mixed with detergent-solubilized IF TmrAB or OF TmrA^EQB. Before, OF TmrA^EQB was nucleotide-trapped by incubation with ATP (1 mM) and MgCl2 (3 mM) in the absence of CP^Fs for 5 min at 45°C.

[1] = TmrAB, 4 °C, CP^F 50 nM, TmrA^EQB 150 nM (CP6^F), 170 nM (CP12^F), 50 nM (CP13^F), 120 nM (CP14^F)
[2] = TmrAB, 45 °C, no nucleotide, CP^F 50 nM, TmrA^EQB 50-170 nM
[3] = TmrAB, ADP, 45 °C, CP^F 50 nM, TmrA^EQB 50-170 nM
[4] = TmrAB, ATP, 45 °C (OF), CP^F 50 nM, TmrA^EQB 50-170 nM
[5] = listed as 4 °C: CP^F 50 nM without TmrAB

Structure (SMILES) | Bound CP^F, fluorescence anisotropy [1] | Bound CP^F, fluorescence anisotropy [2] | Bound CP^F, fluorescence anisotropy [3] | Bound CP^F, fluorescence anisotropy [4] | Binding under nucleotide conditions | Bound CP^F, fluorescence anisotropy [5]
CC[C@H](C)[C@@H]1NC(=O)[C@H]([C@@H](C)O)NC(=O)[C@H](CC(C)C)NC(=O)[C@H](Cc2c[nH]c3ccccc23)NC(=O)[C@H](Cc2ccccc2)NC(=O)[C@H](CC(N)=O)NC(=O)[C@H](CCC(=O)O)NC(=O)[C@H](CC(C)C)NC(=O)[C@H](CS)NC(=O)[C@H](Cc2c[nH]cn2)NC(=O)[C@H](CO)NC(=O)[C@@H](Cc2ccc(O)cc2)NC(=O)CSC[C@@H](C(=O)NCC(=O)N[C@@H](CO)C(=O)NCCC(=O)NCCC(=O)N[C@@H](CCCNC(=N)N)C(=O)N[C@@H](CCCCNC(=O)c2ccc3c(c2)C(=O)OC32c3ccc(O)cc3Oc3cc(O)ccc32)C(N)=O)NC(=O)[C@H](CC(C)C)NC1=O [CP6] ({CH2CO}-[dY]SHCLENFWLTILCGS[βAla][βAla]RK(5FAM)-NH2; thioether N-14) | 0.143 | 0.132 | 0.129 | 0.050 | preferentially bind under conditions where IF TmrAB is exclusively populated | 0.019
CC(C)C[C@@H]1NC(=O)[C@H](Cc2ccccc2)NC(=O)CNC(=O)[C@H](CO)NC(=O)[C@H](Cc2ccccc2)NC(=O)[C@H](CC(=O)O)NC(=O)[C@@H]2CCCN2C(=O)[C@H]([C@@H](C)O)NC(=O)[C@@H](Cc2ccc(O)cc2)NC(=O)CSC[C@@H](C(=O)NCC(=O)N[C@@H](CO)C(=O)NCCC(=O)NCCC(=O)N[C@@H](CCCNC(=N)N)C(=O)N[C@@H](CCCCNC(=O)c2ccc3c(c2)C(=O)OC32c3ccc(O)cc3Oc3cc(O)ccc32)C(N)=O)NC(=O)[C@H](C)NC(=O)[C@H](CC(N)=O)NC(=O)[C@H](CCCNC(=N)N)NC(=O)[C@H](CC(C)C)NC(=O)[C@H](Cc2ccccc2)NC(=O)[C@H](C)NC1=O [CP12] ({CH2CO}-[dY]TPDFSGFLAFLRNACGS[βAla][βAla]RK(5FAM)-NH2; thioether N-16) | 0.127 | 0.130 | 0.122 | 0.069 | preferentially bind under conditions where IF TmrAB is exclusively populated | 0.023
CC[C@H](C)[C@@H]1NC(=O)[C@H](Cc2c[nH]c3ccccc23)NC(=O)[C@H](CC(N)=O)NC(=O)[C@H](C)NC(=O)[C@H](CO)NC(=O)[C@@H]2CCCN2C(=O)[C@H](CC(=O)O)NC(=O)[C@@H](Cc2ccc(O)cc2)NC(=O)CSC[C@@H](C(=O)NCC(=O)N[C@@H](CO)C(=O)NCCC(=O)NCCC(=O)N[C@@H](CCCNC(=N)N)C(=O)N[C@@H](CCCCNC(=O)c2ccc3c(c2)C(=O)OC32c3ccc(O)cc3Oc3cc(O)ccc32)C(N)=O)NC(=O)[C@H]([C@@H](C)O)NC(=O)[C@H](CC(C)C)NC(=O)[C@H](CC(C)C)NC(=O)[C@H](C(C)C)NC(=O)[C@H](CC(C)C)NC1=O [CP13] ({CH2CO}-[dY]DPSANWILVLLTCGS[βAla][βAla]RK(5FAM)-NH2; thioether N-14; C-terminus assumed) | 0.055 | 0.051 | 0.050 | 0.048 | bind in the absence and presence of ATP and ADP | 0.023
CC(C)[C@@H]1NC(=O)[C@H](Cc2ccccc2)NC(=O)[C@@H]2CCCN2C(=O)[C@H](CC(N)=O)NC(=O)[C@H](Cc2c[nH]c3ccccc23)NC(=O)[C@H](C(C)C)NC(=O)[C@H](Cc2ccc(O)cc2)NC(=O)[C@H](Cc2ccccc2)NC(=O)[C@@H](Cc2ccc(O)cc2)NC(=O)CSC[C@@H](C(=O)NCC(=O)N[C@@H](CO)C(=O)NCCC(=O)NCCC(=O)N[C@@H](CCCNC(=N)N)C(=O)N[C@@H](CCCCNC(=O)c2ccc3c(c2)C(=O)OC32c3ccc(O)cc3Oc3cc(O)ccc32)C(N)=O)NC(=O)[C@H](CCCCN)NC(=O)[C@H](Cc2ccccc2)NC1=O [CP14] ({CH2CO}-[dY]FYVWNPFVFKCGS[βAla][βAla]RK(5FAM)-NH2; thioether N-12; C-terminus assumed) | 0.134 | 0.132 | 0.131 | 0.127 | bind in the absence and presence of ATP and ADP | 0.023
